The values below come from ChEMBL document CHEMBL2216751, “PI3Kδ and PI3Kγ as targets for autoimmune and inflammatory diseases” (J Med Chem, 2012).

Broadly, the IC50 is the concentration that gives 50% inhibition. A word on the inhibition in vivo: it is the drop in the measured response relative to a control, in per cent.

Assay [1] has as its target T1, Phosphatidylinositol 4,5-bisphosphate 3-kinase catalytic subunit delta isoform (Homo sapiens, UniProt O00329).
T1 sequence (O00329 whole entry): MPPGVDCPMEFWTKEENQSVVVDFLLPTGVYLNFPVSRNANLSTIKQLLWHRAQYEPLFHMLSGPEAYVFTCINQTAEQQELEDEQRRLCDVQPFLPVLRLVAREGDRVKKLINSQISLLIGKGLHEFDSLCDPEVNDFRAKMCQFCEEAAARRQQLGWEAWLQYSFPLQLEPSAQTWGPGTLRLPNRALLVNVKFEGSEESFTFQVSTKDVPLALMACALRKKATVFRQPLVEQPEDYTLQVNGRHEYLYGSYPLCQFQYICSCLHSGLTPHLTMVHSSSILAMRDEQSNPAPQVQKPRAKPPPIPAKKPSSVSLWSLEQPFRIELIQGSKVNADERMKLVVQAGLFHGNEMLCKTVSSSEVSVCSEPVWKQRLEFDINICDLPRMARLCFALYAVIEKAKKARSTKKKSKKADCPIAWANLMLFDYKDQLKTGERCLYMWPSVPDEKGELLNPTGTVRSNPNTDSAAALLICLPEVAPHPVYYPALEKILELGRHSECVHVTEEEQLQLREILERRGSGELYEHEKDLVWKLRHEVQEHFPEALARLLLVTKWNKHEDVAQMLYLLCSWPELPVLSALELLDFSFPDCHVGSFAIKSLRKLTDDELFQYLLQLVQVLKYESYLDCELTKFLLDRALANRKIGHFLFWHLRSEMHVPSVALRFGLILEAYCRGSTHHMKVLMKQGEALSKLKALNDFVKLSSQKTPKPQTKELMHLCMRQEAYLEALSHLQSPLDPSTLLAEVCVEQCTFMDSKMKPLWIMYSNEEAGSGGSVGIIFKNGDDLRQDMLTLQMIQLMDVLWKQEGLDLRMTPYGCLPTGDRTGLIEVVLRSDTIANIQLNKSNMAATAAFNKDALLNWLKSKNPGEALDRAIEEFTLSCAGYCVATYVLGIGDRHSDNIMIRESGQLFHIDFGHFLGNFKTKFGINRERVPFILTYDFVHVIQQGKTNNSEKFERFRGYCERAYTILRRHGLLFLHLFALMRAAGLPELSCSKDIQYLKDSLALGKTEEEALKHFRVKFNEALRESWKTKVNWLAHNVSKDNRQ
Nature of the assay: Inhibition of PI3Kdelta using phosphatidylinositol as substrate by gamma33P[ATP] incorporation assay.

Assay [2] relates to Mus musculus. Nature of the assay: Antiinflammatory activity in cigarette smoking-induced COPD BALB/c mouse model assessed as reduction in pulmonary neutrophilia at 0.4 % administered as aerosolized formulation. It counts as functional. Also on record: scale not given: the % may be the effect or the level left.
For assay [3], the system named is Mus musculus. As to the kind of experiment: Antiinflammatory activity in LPS-induced COPD BALB/c mouse model assessed as reduction in pulmonary neutrophilia at 0.4 % administered as aerosolized formulation. It counts as functional. Set-up: scale not given: the % may be the effect or the level left.
For assay [4], the system named is Rattus norvegicus. Nature of the assay: Cardioprotective activity in Sprague-Dawley rat MI model assessed as reduction in coronary artery occlusion at 0.05 to 5 mg/kg, iv administered as single bolus dose post 60 mins of reperfusion measured after 24 hrs. It counts as functional. Set-up: scale not given: the % may be the effect or the level left. The settings on record: dose mg/kg 0.05-5.

For assay [5], the system named is Rattus norvegicus. As to the kind of experiment: Antiinflammatory activity in Sprague-Dawley rat assessed as reduction in PAF/dextran-induced hind paw edema at 5 mg/kg. It counts as functional. Set-up: scale not given: the % may be the effect or the level left.
The next assay has as its system Sus scrofa. As to the kind of experiment: Cardioprotective activity in pig MI model assessed as reduction in coronary artery occlusion at 0.5 mg/kg, iv administered as single bolus dose post 90 mins of reperfusion measured after 24 hrs. It counts as functional. Also on record: scale not given: the % may be the effect or the level left.
Assay [6] relates to Mus musculus. As to the kind of experiment: Antiinflammatory activity in ovalbumin-sensitized mouse asthma model assessed as reduction in airway-hyper responsiveness at 0.4 % administered as aerosolized formulation for 12 to 14 days. It is filed as functional. Set-up: scale not given: the % may be the effect or the level left.
The test system of assay [7] is Mus musculus. Nature of the assay: Antiinflammatory activity in ovalbumin-sensitized mouse asthma model assessed as reduction in lung eosinophils at 0.4 % administered as aerosolized formulation for 12 to 14 days. It is filed as functional. Also on record: scale not given: the % may be the effect or the level left.
In assay [8] the target is T1, Phosphatidylinositol 4,5-bisphosphate 3-kinase catalytic subunit delta isoform. As to the kind of experiment: Inhibition of PI3Kdelta in human PBMC assessed as inhibition of anti-IgM-induced AKT phosphorylation by FACS analysis.
Assay [9] concerns the target T2, Phosphatidylinositol 4,5-bisphosphate 3-kinase catalytic subunit delta isoform (Mus musculus, UniProt O35904).
T2 sequence (O35904 whole entry): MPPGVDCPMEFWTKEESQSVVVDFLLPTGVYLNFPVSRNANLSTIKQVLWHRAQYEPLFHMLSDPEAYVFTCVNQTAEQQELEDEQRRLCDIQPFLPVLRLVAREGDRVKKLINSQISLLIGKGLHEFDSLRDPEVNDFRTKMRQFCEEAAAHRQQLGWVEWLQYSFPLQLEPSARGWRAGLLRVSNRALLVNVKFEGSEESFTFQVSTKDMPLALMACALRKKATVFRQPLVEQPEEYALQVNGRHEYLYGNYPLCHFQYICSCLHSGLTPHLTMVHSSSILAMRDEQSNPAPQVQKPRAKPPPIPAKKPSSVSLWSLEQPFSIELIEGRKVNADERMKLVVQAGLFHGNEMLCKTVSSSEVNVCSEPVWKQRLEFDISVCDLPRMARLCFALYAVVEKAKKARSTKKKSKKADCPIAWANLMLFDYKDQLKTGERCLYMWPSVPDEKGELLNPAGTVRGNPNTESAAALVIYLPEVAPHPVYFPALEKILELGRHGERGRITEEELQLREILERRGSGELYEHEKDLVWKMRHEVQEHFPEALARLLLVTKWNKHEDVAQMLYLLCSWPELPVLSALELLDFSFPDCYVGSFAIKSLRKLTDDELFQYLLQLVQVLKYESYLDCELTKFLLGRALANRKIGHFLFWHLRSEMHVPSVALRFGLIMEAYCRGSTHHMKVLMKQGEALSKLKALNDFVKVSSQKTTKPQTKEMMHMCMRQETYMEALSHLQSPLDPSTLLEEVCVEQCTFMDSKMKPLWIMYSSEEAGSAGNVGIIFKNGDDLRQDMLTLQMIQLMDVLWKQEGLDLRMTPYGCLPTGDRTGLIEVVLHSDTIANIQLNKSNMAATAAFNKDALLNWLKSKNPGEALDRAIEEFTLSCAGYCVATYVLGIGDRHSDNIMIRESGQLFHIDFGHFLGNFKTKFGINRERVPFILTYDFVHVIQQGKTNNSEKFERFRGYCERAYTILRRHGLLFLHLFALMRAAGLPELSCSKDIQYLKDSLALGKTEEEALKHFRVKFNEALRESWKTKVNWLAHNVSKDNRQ
Nature of the assay: Inhibition of PI3Kdelta-mediated AKT phosphorylation in mouse Raw 264.7 cells by immunoassay. It counts as cell-based.

Assay [10] concerns the target T1, Phosphatidylinositol 4,5-bisphosphate 3-kinase catalytic subunit delta isoform. The settings on record: read-out: IC50.
For assay [11] the target is unchanged. Nature of the assay: Inhibition of PI3Kdelta assessed as inhibition of H2O2-induced AKT phosphorylation by cell-based assay.
The species entered for assay [12] is Mus musculus. As to the kind of experiment: Antiarthritic activity in adjuvant-induced rheumatoid arthritis mouse model assessed as reduction in disease clinical score. Also on record: scale not given: the % may be the effect or the level left. It is filed as functional.
The subject of assay [13] is Rattus norvegicus. Nature of the assay: Antiinflammatory activity in rat assessed as inhibition of Streptococcal cell wall-induced rat paw edema at 30 mg/kg. It counts as functional.
The test system of assay [14] is Rattus norvegicus. As to the kind of experiment: Antiinflammatory activity in rat assessed as inhibition of Streptococcal cell wall-induced rat paw edema. It is filed as functional. To be noted: read-out: ID50 (the source's name).

`O=c1cc(N2CCOCC2)oc2c(-c3ccccc3)cccc12` [LY-294002] displayed a half-inhibitory concentration (IC50) in assay [1] of 1050 nM.

Regarding `Nc1nc(N)c2nc(-c3cccc(O)c3)c(-c3cccc(O)c3)nc2n1` [TG100-115], the Activity result in the assay on Mus musculus [2] was “>=81%”; with Mus musculus [3], 42%; in the assay on Rattus norvegicus [4] it was “>=40%”; in the assay with Rattus norvegicus [5], “>=62%”; with Sus scrofa, 35%; in the assay on Mus musculus [6], 50%. In addition, the Activity in the assay on Mus musculus [7] came to 79%.

As for `COc1cc(Nc2nc3ccccc3nc2NS(=O)(=O)c2ccc(CN(C)C)cc2)cc(OC)c1`, the IC50 in assay [8] turned out to be 16 nM.

On to `O=C1NC(=O)/C(=C/c2ccc3ncnc(N4CCC(C(F)(F)F)CC4)c3n2)S1`, for which the IC50 was less than 10 nM in assay [9] and 6 nM in assay [10].

Regarding `C#Cc1cccc2nc(Cn3nc(-c4cccc(O)c4)c4c(N)ncnc43)n(Cc3cccc(OC)c3)c(=O)c12`, the IC50 in assay [11] was determined as 570 nM.

For `O=C1NC(=O)/C(=C/c2ccc3nccnc3c2)S1`, the Activity in the assay listed under Mus musculus [12] was 40%.

For `O=C(Nc1nn[nH]n1)c1cnc(N2CCOCC2)nc1OC1CCCCCC1`, the inhibition in vivo at 30 mg/kg in the assay on Rattus norvegicus [13] is 52%. Moreover, the ED50 in the assay on Rattus norvegicus [14] was found to be 16.3 mg/kg. Further, in assay [10], the IC50 turned out to be 197 nM.
